These results are taken from article PMC9635468, “Biological evaluation, docking studies, and in silico ADME prediction of some pyrimidine and pyridine derivatives as potential EGFR^WT and EGFR^T790M inhibitors” (Journal of Enzyme Inhibition and Medicinal Chemistry, 2022).

≈ marks a conversion by molar mass, not a printed value.

The target of one experiment is EGFR (Wild) (Homo sapiens, UniProt P00533). Briefly: EGFR kinase (wild) inhibition assay, Kinase-Glo MAX. (In general: Kinase-Glo reads ATP consumption through a luciferase reaction.)
Sequence of EGFR (Wild) (P00533 25-1210): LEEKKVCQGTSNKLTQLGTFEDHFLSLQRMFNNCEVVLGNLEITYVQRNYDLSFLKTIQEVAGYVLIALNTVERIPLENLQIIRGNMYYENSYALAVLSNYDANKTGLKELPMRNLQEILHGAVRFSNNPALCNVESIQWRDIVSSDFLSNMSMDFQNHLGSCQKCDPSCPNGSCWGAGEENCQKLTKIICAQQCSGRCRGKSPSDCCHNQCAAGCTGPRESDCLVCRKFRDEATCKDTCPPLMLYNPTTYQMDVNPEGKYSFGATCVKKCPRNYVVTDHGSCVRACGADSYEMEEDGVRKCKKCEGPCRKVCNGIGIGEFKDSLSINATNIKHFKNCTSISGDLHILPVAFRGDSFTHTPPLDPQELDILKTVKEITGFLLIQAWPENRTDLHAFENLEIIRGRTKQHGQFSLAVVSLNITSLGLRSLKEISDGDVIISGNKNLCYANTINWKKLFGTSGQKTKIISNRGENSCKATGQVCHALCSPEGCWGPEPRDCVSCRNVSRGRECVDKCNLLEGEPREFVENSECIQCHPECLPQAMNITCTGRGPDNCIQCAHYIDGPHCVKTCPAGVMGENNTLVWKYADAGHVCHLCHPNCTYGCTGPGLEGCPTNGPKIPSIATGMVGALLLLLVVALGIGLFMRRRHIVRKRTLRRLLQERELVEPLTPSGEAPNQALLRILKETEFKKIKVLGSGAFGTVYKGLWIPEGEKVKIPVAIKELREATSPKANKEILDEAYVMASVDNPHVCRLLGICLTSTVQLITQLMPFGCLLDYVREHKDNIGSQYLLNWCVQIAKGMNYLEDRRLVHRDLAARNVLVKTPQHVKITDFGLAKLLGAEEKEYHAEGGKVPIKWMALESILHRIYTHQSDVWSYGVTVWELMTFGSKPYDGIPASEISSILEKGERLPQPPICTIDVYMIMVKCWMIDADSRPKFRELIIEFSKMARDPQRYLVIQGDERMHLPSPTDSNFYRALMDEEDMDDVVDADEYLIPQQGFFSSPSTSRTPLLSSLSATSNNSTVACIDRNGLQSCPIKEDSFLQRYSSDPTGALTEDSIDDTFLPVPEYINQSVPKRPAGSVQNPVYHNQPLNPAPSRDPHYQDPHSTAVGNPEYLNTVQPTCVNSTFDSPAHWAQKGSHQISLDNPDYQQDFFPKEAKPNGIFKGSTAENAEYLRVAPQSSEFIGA
Another experiment concerns HEPG2. Briefly: Cytotoxicity screening, SRB assay, HEPG2. It is filed as cell-based, human. To be noted: for HEPG2 IC50: 48 h; for IC50: Homo sapiens, HepG2, 48 h. How it is done:
(§1) In this study, a panel of cell lines was examined for their chemosensitivity. Different concentrations of the synthesised pyridines and pyrimidine derivatives were used in this study (5, 12.5, 25, and 50 µg/mL) for all the examined cell lines. In this study, breast tumour cell line (MCF7), hepatocellular carcinoma cell line (HEPG2), larynx cell line (HEP2), lung cancer cell line (H460), colon cancer cell line (HCT116 and Caco2), hypopharyngeal cell line (FADU), and normal Vero cell line were applied. The full methodology is described in the Supplementary data (SI 1).
(§2) SI 1: Cytotoxicity screening against human cancer cell lines
(§3) In this study, a panel of cell lines was examined for their chemosensitivity. Different concentrations of the synthesized pyridines and pyrimidines derivatives were used in this study (5, 12.5, 25, and 50 µg/ml) for all the examined cell lines. The most sensitive cell line to the treatment regimen was selected and subjected to further investigations to explore the mechanism of this interaction. Human breast tumor cell line (MCF7), human hepatocellular carcinoma cell line (HEPG2), human larynx cell line (HEP2), human lung cancer cell line (H460), human colon cancer cell line (HCT116 and Caco2), human hypopharyngeal cell line (FaDu), and normal cell line Vero were used in this study. It was obtained from the American Type Culture Collection (ATCC, Minnesota, USA). The tumor cell line was maintained at National Cancer Institute (NCI), Cairo, Egypt.
(§4) The antitumor activities of pyridines and pyrimidines derivatives and all tested cell lines were evaluated by sulphorhodamine-B (SRB) assay 1. Briefly, cells were seeded at a density of 3 × 10^3 cells/well in 96-well microtiter plates. They were left to attach for 24 h before incubation with drugs. Next, cells were treated with different concentrations of 5, 12.5, 25, and 50 µg/ml for MCF7, HEPG2, HEP2, HCT116, Caco2, H460, FaDu, and Vero cells. For each concentration, three wells were used and incubation was continued for 48 h. DMSO was used as a control vehicle (1 % v/v). At the end of incubation, cells were fixed with 20 % trichloroacetic acid and stained with 0.4 % SRB dye. The optical density (O.D.) of each well was measured spectrophotometrically at 570 nm using an ELISA microplate reader (TECAN sunrise™, Germany). The mean survival fraction at each drug concentration was calculated as follows: […]
(§5) O.D. of the treated cells/O.D. of the control cells. The IC50 (concentration that produces 50% of cell growth inhibition) value of each drug was calculated using sigmoidal dose-response curve-fitting models (Graph Pad Prizm software, version 5) 1.

The subject of another experiment is VERO. Briefly: Cytotoxicity screening, SRB assay, normal Vero cells. It is filed as cell-based. To be noted: 48 h, normal cell line; for IC50: Chlorocebus sabaeus, Vero. The protocol: as §1, §2, §3, §4, §5
(In general: Sulforhodamine B stains cellular protein and so reports cell mass.)

The subject of another experiment is HEPG2 cell line. Briefly: Annexin V-FITC apoptosis detection by flow cytometry. It is filed as cell-based, human. To be noted: HEPG2, 3.8 µg/mL, 48 h; control 16.73. How it is done:
Furthermore, both compounds 8 and 14 were evaluated for apoptosis using flow cytometry on the HEPG2 cell line. The % rate of total apoptosis for control, compound 8, and compound 14 were 16.73, 22.44, and 48.36 (%), respectively.
Liver cancer cells (HEPG2) were seeded in RPMI-1640 media at a density of 250 X 10^3 cells/mL. Both cell cycle and apoptosis evaluations were performed at 3.8 µg/mL for both compounds 8 and 14. The detailed method is described in the Supplementary data (SI 3).
Annexin V-FITC apoptosis detection kit (Beckman Coulter, California, USA) was used as the manufacturer’s recommendation by using (Beckman Coulter EPICS XL flow cytometer, California, USA). […]
Cell cycle evaluation was performed at 3.8 µg/mL of both compounds […]. After 48 h, the cells were harvested, stained and DNA content was quantified.
The most promising cytotoxic compounds (8 and 14) were further assessed for their inhibitory potential against both EGFR Wild and EGFRT T790M. […] The amount of EGFR required for the assay was calculated and the enzyme was diluted to 1 ng/μL with Kinase assay buffer. […] The plate was incubated at room temperature for 15 minutes and luminescence was measured using the microplate reader.
For orientation: Flow cytometry measures light scatter and fluorescence of single cells or particles in a stream.

Another experiment concerns HEPG2 cells. The experiment in a line: Cell cycle DNA index analysis by flow cytometry. It is filed as cell-based, human. To be noted: HEPG2, 3.8 µg/mL, 48 h; for cells in G2/M phase: control 5.57%; for cells in G0/G1: control 92.7%.
The subject of the next experiment is T47D. The experiment in a line: Cytotoxicity screening, SRB assay, T47D. The class given is cell-based, human. To be noted: Homo sapiens, T47D, 48 h.
The test system of another experiment is H460. Briefly: Cytotoxicity screening, SRB assay, H460. The class given is cell-based, human. To be noted: for H460 IC50: 48 h; for IC50: Homo sapiens, NCI-H460, 48 h. How it is done: as §1, §2, §3, §4, §5
Another experiment has as its target EGFR (T790M) (Homo sapiens, UniProt P00533, T790M). The experiment in a line: EGFR kinase (T790M) inhibition assay, Kinase-Glo MAX.

Sequence of EGFR (T790M) (P00533 25-1210 T790M): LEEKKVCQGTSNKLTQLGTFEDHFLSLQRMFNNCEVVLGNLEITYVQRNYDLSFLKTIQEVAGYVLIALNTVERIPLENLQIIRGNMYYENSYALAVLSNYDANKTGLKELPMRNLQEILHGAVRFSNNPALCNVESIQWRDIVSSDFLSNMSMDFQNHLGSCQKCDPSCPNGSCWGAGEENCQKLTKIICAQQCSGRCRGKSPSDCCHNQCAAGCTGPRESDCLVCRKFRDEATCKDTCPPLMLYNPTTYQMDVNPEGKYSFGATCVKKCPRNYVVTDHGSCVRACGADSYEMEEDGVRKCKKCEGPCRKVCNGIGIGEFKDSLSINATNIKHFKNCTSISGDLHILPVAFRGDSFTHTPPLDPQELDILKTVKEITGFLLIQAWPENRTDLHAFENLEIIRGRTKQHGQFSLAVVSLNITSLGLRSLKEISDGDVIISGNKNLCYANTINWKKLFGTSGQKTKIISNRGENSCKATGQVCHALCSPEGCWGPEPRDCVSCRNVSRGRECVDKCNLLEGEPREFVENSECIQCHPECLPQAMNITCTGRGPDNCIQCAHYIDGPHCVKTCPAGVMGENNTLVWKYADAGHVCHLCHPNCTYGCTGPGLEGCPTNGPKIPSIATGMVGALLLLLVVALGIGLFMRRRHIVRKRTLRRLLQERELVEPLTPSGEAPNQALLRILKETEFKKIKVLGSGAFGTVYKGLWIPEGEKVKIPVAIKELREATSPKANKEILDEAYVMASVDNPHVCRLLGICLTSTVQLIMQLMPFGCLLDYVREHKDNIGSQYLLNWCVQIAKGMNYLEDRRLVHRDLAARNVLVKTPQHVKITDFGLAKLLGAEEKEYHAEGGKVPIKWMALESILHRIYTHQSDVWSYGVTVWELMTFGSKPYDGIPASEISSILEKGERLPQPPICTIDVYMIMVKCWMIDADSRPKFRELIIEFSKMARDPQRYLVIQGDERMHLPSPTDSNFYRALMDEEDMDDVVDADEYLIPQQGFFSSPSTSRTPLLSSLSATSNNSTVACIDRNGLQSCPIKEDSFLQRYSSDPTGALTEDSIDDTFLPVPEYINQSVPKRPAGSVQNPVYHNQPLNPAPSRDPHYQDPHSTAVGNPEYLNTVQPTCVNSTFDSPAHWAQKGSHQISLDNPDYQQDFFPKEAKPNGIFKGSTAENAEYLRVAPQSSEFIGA
Experimental for EGFR (T790M): (§6) The reagent, Kinase-Glo MAX, was used[50], and luminescence was detected by applying the microplate reader.
(§7) The assay protocol was carried out by adding 25 μL of the master mixture: (6 μL Kinase assay buffer + 1 μL ATP (500 μM) + 1 μL PTK substrate + 17 μL water) to each well. Thereafter, 5 μL of the inhibitor solution was added to each well labeled as “test inhibitor”. Meanwhile, for the “positive control" and “blank”, 5 μL of the same solution without inhibitor (inhibitor buffer) was added. To the wells designated as "blank", add 20 μL of Kinase assay buffer. The amount of EGFR required for the assay was calculated and the enzyme was diluted to 1 ng/μL with Kinase assay buffer. The reaction was initiated by adding 20 μL of diluted EGFR enzyme to the wells designated as “positive control” and "test inhibitor control". The wells were incubated at 30°C for 40 minutes, then 50 μL of Kinase-Glo Max reagent was added to each well. The plate was incubated at room temperature for 15 minutes and luminescence was measured using the microplate reader.
Experimental for EGFR (Wild): as §6, §7

In general, IC50 refers to the midpoint of a concentration-inhibition curve. A lower IC50 goes with higher potency. Regarding `N#Cc1c(-c2cccs2)cc(-c2ccco2)[nH]c1=O` [Compound 14], the IC50 against EGFR (Wild) turned out to be 203 ± 12 nM; in the experiment on HEPG2, 3.6 µg/mL (≈ 13.4 µM); in the experiment with VERO, 4 µg/mL (≈ 14.9 µM); with T47D it was 4.7 µg/mL (≈ 17.5 µM); in the experiment on H460 it was 12.5 µg/mL (≈ 46.6 µM); against EGFR (T790M), 156 ± 9 nM. Moreover, in the experiment with HEPG2, the “HEPG2 IC50” value amounted to 3.80 µg/mL. Further, the “VERO IC50” value in the experiment on VERO is reported as 4.60 µg/mL. Further, the “% rate of total apoptosis” value in the experiment on HEPG2 cell line is reported as 48.36%. Also, in the experiment on HEPG2 cells, the “cells in G2/M phase” value is 25.9%. Also, the “cells in G0/G1” value with HEPG2 cells is listed as 69.8%. Besides, in the experiment with H460, the “H460 IC50” value is 8.00 µg/mL.
Take `Oc1n[nH]c2nc(-c3ccco3)cc(-c3cccs3)c12` [Compound 8]: the IC50 was 131 ± 8 nM on EGFR (Wild); 4 µg/mL (≈ 14.1 µM) in the experiment with HEPG2; 4.3 µg/mL (≈ 15.2 µM) with VERO; 7.5 µg/mL (≈ 26.5 µM) in the experiment with T47D; 8.5 µg/mL (≈ 30 µM) in the experiment with H460; 27 ± 2 nM on EGFR (T790M). Also, the “HEPG2 IC50” value with HEPG2 was 3.80 µg/mL. Further, the “VERO IC50” value in the experiment on VERO was 3.90 µg/mL. In addition, the “% rate of total apoptosis” value with HEPG2 cell line is 22.44%. For the same compound, the “cells in G2/M phase” value in the experiment on HEPG2 cells is reported as 34.4%. In the experiment with HEPG2 cells, the “cells in G0/G1” value is recorded as 61.4%. In addition, the “H460 IC50” value in the experiment with H460 is given as 11.70 µg/mL.
